Results reported in US9012499B2, “Pharmaceutical composition comprising oseltamivir phosphate” (Chugai Seiyaku Kabushiki Kaisha, priority 2006, dated 2015).

What was measured:
[1] = Color development of sugars and sugar alcohols mixed with oseltamivir phosphate (Example 1); format: physicochemical; conditions: nine parts by weight of test sample and one part of oseltamivir phosphate; for Coloring by mixing with sugars and sugar alcohols, rank of color difference ΔE*, 40° C., 75% RH, one month (open): bottle open; for Coloring by mixing with sugars and sugar alcohols, rank of color difference ΔE*, 60° C. for 2 weeks (sealed): sealed bottle
Experimental: Various samples of sugars and sugar alcohols were mixed with oseltamivir phosphate and the color development was confirmed by the following method. Nine parts by weight of a test sample and one part by weight of oseltamivir phosphate were mixed in a mortar, and the mixture was transferred to a No. 1 standard brown glass bottle (volume: 14 ml) and the bottle was tightly sealed by a polyethylene middle stopper and a polypropylene screw cap. The color of the mixture immediately after mixing was measured by a color difference meter. The mixture was kept in the following two conditions: i) 2 weeks in a 60° C. incubator, or ii) one month in a 40° C. incubator at 75% RH while the bottle was open. Thereafter, the color of the mixture was measured. The color difference before and after the storage ΔE*(CIE L*a*b*) was measured. The measurement of color difference was carried out according to JIS Z-8722, based on 0-45° rear spectrophotometric method using a spectrophotometric color difference meter (SE-2000) (Nippon Denshoku Ltd.).
The A, B and C rank in the table represents ΔE*≦2.5, 2.5<ΔE*≦5.0 and ΔE*>5.0, respectively.

[2] = Color change of wet-granulated sugar alcohol/oseltamivir phosphate formulation after storage (Example 2); format: physicochemical; conditions: 27 g additive + 3 g oseltamivir phosphate, wet granulation with water; 60° C. for 4 weeks under a tight seal
Experimental: Twenty seven grams of a sugar alcohol and 3 g of oseltamivir phosphate were mixed in a mortar, and then kneaded by adding 1 mL of water to carry out the wet granulation. The mixture was dried in a 50° C. constant temperature drying oven for 3 hr to reduce the water content of the formulation to 1% by weight or less. The formulation was kept at 60° C. for 4 weeks under a tight seal and the change of color before and after the storage was measured by a color difference meter.

[3] = Equilibrium water content of sugars and sugar alcohols (DVS-1); format: physicochemical; conditions: 25° C., relative humidity 70%
Experimental: Sugars and sugar alcohols (excipients) used in the pharmaceutical composition of the present invention have a characteristic that their equilibrium water content is 1% by weight or less at 25° C. and at 70% relative humidity. That is, the equilibrium water content may be obtained by leaving the samples (sugars or sugar alcohols) in the air that has been held in the predetermined condition of 25° C. and 70% relative humidity for a long time, and then by measuring when the water content in the samples become constant.
(1) Method for Measuring Equilibrium Water Content
Equilibrium water content (25° C., relative humidity 70%) of sugars and sugar alcohols can be measured by the method using a DVS-1 (Surface Measurement Systems Ltd.). The condition for measurement is as follows.
Quantity of samples: 50 to 100 mg (intending to scale 75 mg)
Measurement temperature: 25±1° C.
Setting range of relative humidity: 0 to 100% RH
Measurement step of relative humidity: up to 10%
Hold time: If change of the weight is less than 0.02%, the measurement enters next step, but the change is not stable, the step lasts up to 120 min.

[4] = tested on: neuraminidase of influenza virus; conditions: Patent Document 1 (WO1998/007685); cited from earlier work

## OC[C@H]1O[C@@](CO)(O[C@H]2O[C@H](CO)[C@@H](O)[C@H](O)[C@H]2O)[C@@H](O)[C@@H]1O [Sucrose]
[1]
  Coloring by mixing with sugars and sugar alcohols, rank of color difference ΔE*, 40° C., 75% RH, one month (open): B (2.5<ΔE*≦5.0)
  Coloring by mixing with sugars and sugar alcohols, rank of color difference ΔE*, 60° C. for 2 weeks (sealed): A (ΔE*≦2.5)

## OC[C@@H](O)[C@@H](O)[C@H](O)[C@@H](O)CO [D-sorbitol 1, D-sorbitol]
[2]
  Color difference ΔE*: 14.6

## OC[C@@H](O)[C@H](O)[C@@H](O)CO [Xylitol]
[1]
  Coloring by mixing with sugars and sugar alcohols, rank of color difference ΔE*, 40° C., 75% RH, one month (open): C (ΔE*>5.0)
  Coloring by mixing with sugars and sugar alcohols, rank of color difference ΔE*, 60° C. for 2 weeks (sealed): B (2.5<ΔE*≦5.0)

## OC[C@@H](O)[C@@H](O)CO [Erythritol]
[3]
  Equilibrium water content: *Equilibrium water content (25° C., relative humidity 70%) is 0.1%, the contents of glucose and mannose as impurities are <0.001% and 0.001%, respectively.
[3]; listed as erythritol
  Equilibrium water content: 0.1%
[1]
  Coloring by mixing with sugars and sugar alcohols, rank of color difference ΔE*, 40° C., 75% RH, one month (open): B (2.5<ΔE*≦5.0)
  Coloring by mixing with sugars and sugar alcohols, rank of color difference ΔE*, 60° C. for 2 weeks (sealed): A (ΔE*≦2.5)
[2]
  Color difference ΔE*: 4.7

## OC[C@@H](O)[C@@H](O)[C@H](O)[C@@H](O)CO [D-sorbitol 2, D-sorbitol]
[2]
  Color difference ΔE*: 11.2

## OC[C@@H](O)[C@@H](O)[C@H](O)[C@H](O)CO [D-Mannitol]
[1]
  Coloring by mixing with sugars and sugar alcohols, rank of color difference ΔE*, 40° C., 75% RH, one month (open): A (ΔE*≦2.5)
  Coloring by mixing with sugars and sugar alcohols, rank of color difference ΔE*, 60° C. for 2 weeks (sealed): A (ΔE*≦2.5)
[2]
  Color difference ΔE*: 3.4

## OC[C@@H](O)[C@@H](O)[C@H](O)[C@@H](O)CO [D-sorbitol]
[3]
  Equilibrium water content: 1.7%
[1]
  Coloring by mixing with sugars and sugar alcohols, rank of color difference ΔE*, 40° C., 75% RH, one month (open): C (ΔE*>5.0)
  Coloring by mixing with sugars and sugar alcohols, rank of color difference ΔE*, 60° C. for 2 weeks (sealed): C (ΔE*>5.0)

## CCOC(=O)C1=C[C@@H](OC(CC)CC)[C@H](NC(C)=O)[C@@H](N)C1.O=P(O)(O)O [Oseltamivir phosphate, (−)-ethyl (3R,4R,5S)-4-acetamido-5-amino-3-(1-ethylpropoxy)-cyclohex-1-ene-1-carboxylate monophosphate]
[4]
  Inhibitory activity against neuraminidase of influenza virus: potent inhibitory activity
[1]
  Coloring by mixing with sugars and sugar alcohols, rank of color difference ΔE*, 40° C., 75% RH, one month (open): A (ΔE*≦2.5)
  Coloring by mixing with sugars and sugar alcohols, rank of color difference ΔE*, 60° C. for 2 weeks (sealed): A (ΔE*≦2.5)

## OC[C@H]1O[C@H](O[C@H]2[C@H](O)[C@@H](O)C(O)O[C@@H]2CO)[C@H](O)[C@@H](O)[C@@H]1O (mixture of isomers) [Maltose]
[1]
  Coloring by mixing with sugars and sugar alcohols, rank of color difference ΔE*, 40° C., 75% RH, one month (open): C (ΔE*>5.0)
  Coloring by mixing with sugars and sugar alcohols, rank of color difference ΔE*, 60° C. for 2 weeks (sealed): C (ΔE*>5.0)
